{"source": "patent US20250059227A1", "about": "“ARTIFICIAL NUCLEIC ACID, METHOD FOR PRODUCING SAME, AND USE OF SAME” (RIKEN GENESIS CO., LTD., priority 2021, published 2025)", "key": {"[1]": {"test_system": "single-stranded DNA (5′-d(agcaaaaaacgc)-3′; SEQ ID NO: 7) (a sense strand)", "experiment": "Melting temperature (Tm), capability of forming double strand with single-stranded DNA", "type": "binding", "conditions": "for Tm: pH 7.2; for capability of forming a double strand with single-stranded DNA versus single-stranded RNA: antisense strand as shown in SEQ ID NO: 1, modified with one base"}, "[2]": {"test_system": "single-stranded RNA (5′-r(agcaaaaaacgc)-3′; SEQ ID NO: 8) (a sense strand)", "type": "binding", "conditions": "pH 7.2"}}, "note": "[NMe] = code of the source, not defined here; [(B)β] = from compound B-13; [(C)Hβ] = from compound C-8; d = 2'-deoxy (DNA)", "data": [{"substance": "5′-d(gcgxtxtxtgct)-3′ x = NMe-T: reference antisense 12-mer (SEQ ID NO: 2); three x = formula (9) unit, Base thymin-1-yl, R^b Me (antisense GCGTTTTTTGCT; sugars from the 5' end ddd[NMe]d[NMe]d[NMe]dddd, backbone and methylation of C not given here)", "values": [{"measurement": "Tm", "setting": "[1]", "value": 52, "unit": "°C"}, {"measurement": "Tm", "setting": "[2]", "value": 64, "unit": "°C"}]}, {"substance": "5′-d(gcgttxtttgct)-3′ x = (C)Hβ-T: (C)Hβ-T modified oligonucleotide, antisense 12-mer DNA (SEQ ID NO: 1), one x = (C)Hβ-T unit from compound C-8 (antisense GCGTTTTTTGCT; sugars from the 5' end d5 [(C)Hβ]1 d6, backbone not given here)", "values": [{"measurement": "capability of forming a double strand with single-stranded DNA versus single-stranded RNA", "setting": "[1]", "value": "superior capability of forming a double strand together with single-stranded DNA over single-stranded RNA"}]}, {"substance": "5′-d(gcgtxxxttgct)-3′ x = NMe-T: reference antisense 12-mer (SEQ ID NO: 3); three x = formula (9) unit, Base thymin-1-yl, R^b Me (antisense GCGTTTTTTGCT; sugars from the 5' end d4 [NMe]3 d5, backbone and methylation of C not given here)", "values": [{"measurement": "Tm", "setting": "[1]", "value": 51, "unit": "°C"}, {"measurement": "Tm", "setting": "[2]", "value": 60, "unit": "°C"}]}, {"substance": "5′-d(gcgttxtttgct)-3′ x = (B)β-T: (B)β-T modified oligonucleotide, antisense 12-mer DNA (SEQ ID NO: 1), one x = (B)β-T unit from compound B-13 (antisense GCGTTTTTTGCT; sugars from the 5' end d5 [(B)β]1 d6, backbone not given here)", "values": [{"measurement": "capability of forming a double strand with single-stranded DNA versus single-stranded RNA", "setting": "[1]", "value": "superior capability of forming a double strand together with single-stranded DNA over single-stranded RNA"}]}]}
